Laboratory results taken from US4904682A, “Treating mycoses with triazolylalkanols” (Bayer Aktiengesellschaft, priority 1987, dated 1990).
In brackets after ≈: the same amount, converted by molar mass.

Experiments:
[1] = test system: Dermatophytes, Hyphomycetes and yeasts; assay: Antimycotic in vitro activity, serial dilution test (overall statement); type: cell-based; details: in words
Description: (§1) The in vitro tests were carried out in a serial dilution test using bacterial inocula of, on average, 5×10^3 to 10^4 bacteria/ml of substrate. Nutrients used were (a) for Dermatophytes and Hyphomycetes: Sabouraud's test medium (b) for yeasts: meat extract/dextrose broth. The incubation temperature was 28° C. to 37° C., and the incubation period was 24 to 96 hours for yeasts and 96 hours for Dermatophytes and Hyphomycetes.

Trichophyton mentagr. = assay: Antimycotic in vitro activity, serial dilution test (MIC); type: cell-based, Trichophyton mentagrophytes; details: Sabouraud's test medium, 28-37° C., 96 hours, read-out: MIC values in μg/ml of nutrient medium
Description: as §1

Torulopsis glabrata = assay: as above; type: cell-based; details: Nakaseomyces glabratus, meat extract/dextrose broth, 28-37° C., 24 to 96 hours, read-out: MIC values in μg/ml of nutrient medium
Description: as §1

Aspergillus fumigatus = assay: as above; type: cell-based; details: Sabouraud's test medium, 28-37° C., 96 hours, read-out: MIC values in μg/ml of nutrient medium
Description: as §1

Candida albicans = assay: as above; type: cell-based; details: meat extract/dextrose broth, 28-37° C., 24 to 96 hours, read-out: MIC values in μg/ml of nutrient medium
Description: as §1

Microsporum canis = assay: as above; type: cell-based; details: Sabouraud's test medium, 28-37° C., 96 hours, read-out: MIC values in μg/ml of nutrient medium
Description: as §1

Candida = assay: Antimycotic in vivo activity (oral) in mouse candidiasis; design: species or system Mice of the SPF-CF1 type; details: in words, 25-100 mg/kg
Description: Mice of the SPF-CF1 type are intravenously inoculated with 1-2×10^6 logarithmically growing Candida cells, which have been suspended in physical logical saline solution. One hour before and seven hours after infection, the animals are orally treated with 25-100 mg/kg of body weight of the preparation in each case. Result Untreated animals died 3 to 6 days post infection. The survival rate on the 6th day post infection was about 5% in untreated control animals.

SMILES	antimycotic activity in vitro [1]	MIC (Trichophyton mentagr.) [µg/mL]	MIC (Torulopsis glabrata) [µg/mL]	MIC (Aspergillus fumigatus) [µg/mL]	MIC (Candida albicans) [µg/mL]	MIC (Microsporum canis) [µg/mL]	action in mouse candidiasis compared with compounds (A) and (B) (Candida)
CC(C)(C#N)C(O)(CCc1ccc(Cl)cc1)Cn1cncn1 (stereo not drawn) [Compound 2]	good antimycotic activity	< 1	16 (≈ 50.2 µM)	16 (≈ 50.2 µM)	16 (≈ 50.2 µM)	16 (≈ 50.2 µM)	–
CC(C)(C#N)C(O)(CSc1ccc(Br)cc1)Cn1cncn1 (stereo not drawn) [Compound 4]	good antimycotic activity	< 1	8 (≈ 21 µM)	4 (≈ 10.5 µM)	8 (≈ 21 µM)	16 (≈ 42 µM)	–
CC(C)(C#N)C(O)(CSc1ccc(Cl)cc1)Cn1cncn1 (stereo not drawn) [Compound 5]	good antimycotic activity	8 (≈ 23.7 µM)	4 (≈ 11.9 µM)	8 (≈ 23.7 µM)	4 (≈ 11.9 µM)	–	–
CC(C)(C#N)C(O)(COc1ccc(-c2ccccc2)cc1)Cn1cncn1 (stereo not drawn) [Compound 7]	good antimycotic activity	< 1	16 (≈ 44.1 µM)	2 (≈ 5.52 µM)	2 (≈ 5.52 µM)	< 1	–
CC(C)(C#N)C(O)(COc1ccc(Cl)cc1)Cn1cncn1 (stereo not drawn) [Compound 8]	–	–	–	–	–	–	better action than the compounds (A) and (B)
